According to patent US20080182859A1 (Curis, Inc., priority 2006, published 2008):
Counter-ions that a name gives are not always drawn.

Assays:
sonic hedgehog pathway [1] = experiment: Hedgehog pathway Gli-luciferase reporter assay, TM3 cells; assay type: cell-based; conditions: TM3 mouse Leydig cells
Description: (§1) Mouse (TM3: mouse Leydig cells; S12: mouse embryonic mesenchymal cells) and human (Daoy: human medulloblastoma cell; HepM: human embryonic palatal mesenchymal cell) cell lines are used to screen small molecules for their ability to modulate the activity of the sonic hedgehog pathway (Table 1, Table 2, and Table 3). Stable hedgehog pathway reporter cell lines are established by specific antibiotic selection following transfection of a reporter plasmid containing a luciferase gene located directly downstream from the gli promoter. Consequently, any observable changes in cellular luciferase activity may be attributed to changes in sonic hedgehog pathway activity in mouse and human cells, respectively, since gli is the major by-product of this pathway. To calculate activity, we generate an eleven point dose curve for each compound using 1:3 dilutions in 96 well assay plates. Each plate tested also contains low and high control to establish maximal pathway activation so to establish/compare a percentage activation of each tested compound (AMAX) on respective plates. Also we calculate EC50 values, or a concentration where the pathway will be exactly 50% activated, for each tested compound to determine potency. In these cell lines, compounds that register >20% AMAX values are considered active.
(§2) Stable hedgehog pathway reporter cell lines are established following specific antibiotic selection following transfection of a reporter plasmid In short, typically cells are plated in MicroTiter-plates at 10,000-20,000 cells per well, in growth media (containing 10%-20% FBS). After 48-72 hrs (HGL and DGL respectively) the media in the assay plates is switched to low-serum containing media (0.5% FBS). At that time compounds are added (at 1-5 μM) to the assay plates, in the presence or absence of hedgehog protein (octyl-modified version; 1-5 ng/ml). After another 24 hrs of incubation, the media from the assay plates is discarded and replaced with luciferase assay-mix. Subsequently, plates are incubated at RT for ˜15-30 mins and then read in a luminometer. [note: addition of the Hedgehog protein, although not critical, will sensitize the assay allowing the identification of weak actives].

sonic hedgehog pathway [2] = experiment: Human hedgehog reporter assay Daoy-GliLuc (DGL); assay type: cell-based; conditions: Daoy human medulloblastoma cells, Gli-luciferase reporter; read-out: Daoy Avg. EC50
Description: as §1, §2

Row | SMILES | EC50 (sonic hedgehog pathway [1]) [nM] | EC50 (sonic hedgehog pathway [2]) [nM]
1 | CN[C@H]1CC[C@@H](N(Cc2cc(-c3ccc(F)cc3)ccc2OC)C(=O)c2sc3ccccc3c2Cl)CC1 [Compound 314, 3-Chloro-benzo[b]thiophene-2-carboxylic acid (4′-fluoro-4-methoxy-biphenyl-3-ylmethyl)-(4-methylamino-cyclohexyl)-amide hydrochloride] | < 50 | < 50
2 | CN[C@H]1CC[C@@H](N(Cc2cc(-c3ccc(C(F)(F)F)cc3)ccc2OC)C(=O)c2sc3ccccc3c2Cl)CC1 [Compound 306, 3-Chloro-benzo[b]thiophene-2-carboxylic acid (4-methoxy-4′-trifluoromethyl-biphenyl-3-ylmethyl)-(4-methylamino-cyclohexyl)-amide trifluoroacetate] | 50 to 250 | < 50
3 | CN[C@H]1CC[C@@H](N(Cc2cc(-c3ccc(Cl)cc3)ccc2OC)C(=O)c2sc3ccccc3c2Cl)CC1 [Compound 308, 3-Chloro-benzo[b]thiophene-2-carboxylic acid (4′-chloro-4-methoxy-biphenyl-3-ylmethyl)-(4-methylamino-cyclohexyl)-amide hydrochloride] | < 50 | < 50
4 | CN[C@H]1CC[C@H](N(Cc2cc(-c3ccnc(C(C)=O)c3)ccc2OC)C(=O)c2sc3c(F)ccc(F)c3c2Cl)CC1 [Compound 407, 3-Chloro-4,7-difluoro-benzo[b]thiophene-2-carboxylic acid [5-(2-acetyl-pyridin-4-yl)-2-methoxy-benzyl]-(4-methylamino-cyclohexyl)-amide dihydrochloride] | < 50 | –
5 | CNc1ncc(-c2ccc(OC)c(CN(C(=O)c3sc4ccccc4c3Cl)[C@H]3CC[C@@H](NC)CC3)c2)cn1 [Compound 322, 3-Chloro-benzo[b]thiophene-2-carboxylic acid [2-methoxy-5-(2-methylamino-pyrimidin-5-yl)-benzyl]-(4-methylamino-cyclohexyl)-amide dihydrochloride] | 250 to 1000 | 50 to 250
6 | CCOc1ccc(-c2ccccc2)cc1CN(C(=O)c1sc2ccccc2c1Cl)[C@H]1CC[C@@H](NC)CC1 [Compound 313, 3-Chloro-benzo[b]thiophene-2-carboxylic acid (4-ethoxy-biphenyl-3-ylmethyl)-(4-methylamino-cyclohexyl)-amide hydrochloride] | 50 to 250 | < 50
7 | CN[C@H]1CC[C@H](N(Cc2cc(-c3cccc(C#N)c3)ccc2F)C(=O)c2sc3ccccc3c2Cl)CC1 [Compound 420, 3-Chloro-benzo[b]thiophene-2-carboxylic acid (3′-cyano-4-fluoro-biphenyl-3-ylmethyl)-(4-methylamino-cyclohexyl)-amide trifluoroacetate] | 50 to 250 | 50 to 250
8 | CN[C@H]1CC[C@@H](N(Cc2cc(-c3cccc(C(C)=O)c3)ccc2OC)C(=O)c2sc3cccc(F)c3c2Cl)CC1 [Compound 363, 3-Chloro-4-fluoro-benzo[b]thiophene-2-carboxylic acid (3′-acetyl-4-methoxy-biphenyl-3-ylmethyl)-(4-methylamino-cyclohexyl)-amide hydrochloride] | < 50 | < 50
9 | CCOc1ccc(-c2ccc(C(F)(F)F)cc2)cc1CN(C(=O)c1sc2ccccc2c1Cl)[C@H]1CC[C@@H](NC)CC1 [Compound 309, 3-Chloro-benzo[b]thiophene-2-carboxylic acid (4-ethoxy-4′-trifluoromethyl-biphenyl-3-ylmethyl)-(4-methylamino-cyclohexyl)-amide hydrochloride] | 50 to 250 | < 50
10 | CN[C@H]1CC[C@H](N(Cc2cc(-c3ccc(OC)cc3)ccc2F)C(=O)c2sc3ccccc3c2Cl)CC1 [Compound 421, 3-Chloro-benzo[b]thiophene-2-carboxylic acid (4-fluoro-4′-methoxy-biphenyl-3-ylmethyl)-(4-methylamino-cyclohexyl)-amide trifluoroacetate] | 250 to 1000 | –
11 | CN[C@H]1CC[C@@H](N(Cc2cc(-c3cnc(N(C)C)nc3)ccc2OC)C(=O)c2sc3ccccc3c2Cl)CC1 [Compound 321, 3-Chloro-benzo[b]thiophene-2-carboxylic acid [5-(2-dimethylamino-pyrimidin-5-yl)-2-methoxy-benzyl]-(4-methylamino-cyclohexyl)-amide dihydrochloride] | 1000 to 2500 | 50 to 250
12 | CN[C@H]1CC[C@H](N(Cc2cc(-c3ccc(C)cc3)ccc2F)C(=O)c2sc3ccccc3c2Cl)CC1 [Compound 427, 3-Chloro-benzo[b]thiophene-2-carboxylic acid (4-fluoro-4′-methyl-biphenyl-3-ylmethyl)-(4-methylamino-cyclohexyl)-amide trifluoroacetate] | 250 to 1000 | –
13 | CN[C@H]1CC[C@H](N(Cc2cc(-c3ccc(N(C)C=O)cc3)ccc2F)C(=O)c2sc3ccccc3c2Cl)CC1 [Compound 426, 3-Chloro-benzo[b]thiophene-2-carboxylic acid [4-fluoro-4′-(formyl-methyl-amino)-biphenyl-3-ylmethyl]-(4-methylamino-cyclohexyl)-amide trifluoroacetate] | < 50 | 50 to 250
14 | CCOc1ccc(-c2ccc(OC)cc2)cc1CN(C(=O)c1sc2ccccc2c1Cl)[C@H]1CC[C@@H](NC)CC1 [Compound 312, 3-Chloro-benzo[b]thiophene-2-carboxylic acid (4-ethoxy-4′-methoxy-biphenyl-3-ylmethyl)-(4-methylamino-cyclohexyl)-amide hydrochloride] | – | 50 to 250
15 | CN[C@H]1CC[C@H](N(Cc2cc(-c3ccc(C(F)(F)F)cc3)ccc2F)C(=O)c2sc3ccccc3c2Cl)CC1 [Compound 422, 3-Chloro-benzo[b]thiophene-2-carboxylic acid (4-fluoro-4′-trifluoromethyl-biphenyl-3-ylmethyl)-(4-methylamino-cyclohexyl)-amide trifluoroacetate] | 250 to 1000 | –
16 | CCOc1ccc(-c2cnc(N(C)C)nc2)cc1CN(C(=O)c1sc2ccccc2c1Cl)[C@H]1CC[C@H](NC)CC1 [Compound 401, 3-Chloro-benzo[b]thiophene-2-carboxylic acid [5-(2-dimethylamino-pyrimidin-5-yl)-2-ethoxy-benzyl]-(4-methylamino-cyclohexyl)-amide dihydrochloride] | 1000 to 2500 | –

Results, then the compound that gave them:

Row | EC50 (sonic hedgehog pathway [1]) [nM] | EC50 (sonic hedgehog pathway [2]) [nM] | SMILES
17 | < 50 | < 50 | CN[C@H]1CC[C@H](N(Cc2cc(-c3ccc(C(=O)C(F)(F)F)cc3)ccc2F)C(=O)c2sc3c(F)ccc(F)c3c2Cl)CC1 [Compound 434, 3-Chloro-4,7-difluoro-benzo[b]thiophene-2-carboxylic acid [4-fluoro-4′-(2,2,2-trifluoro-acetyl)-biphenyl-3-ylmethyl]-(4-methylamino-cyclohexyl)-amide hydrochloride]
18 | 250 to 1000 | – | CNc1ccc(-c2ccc(F)c(CN(C(=O)c3sc4ccccc4c3Cl)[C@H]3CC[C@H](NC)CC3)c2)cc1 [Compound 432, 3-Chloro-benzo[b]thiophene-2-carboxylic acid (4-fluoro-4′-methylamino-biphenyl-3-ylmethyl)-(4-methylamino-cyclohexyl)-amide dihydrochloride]
19 | 1000 to 2500 | – | CN[C@H]1CC[C@H](N(Cc2cc(-c3ccc(NC(C)=O)cc3)ccc2F)C(=O)c2sc3ccccc3c2Cl)CC1 [Compound 429, 3-Chloro-benzo[b]thiophene-2-carboxylic acid (4′-acetylamino-4-fluoro-biphenyl-3-ylmethyl)-(4-methylamino-cyclohexyl)-amide trifluoroacetate]
20 | < 50 | < 50 | CN[C@H]1CC[C@H](N(Cc2cc(-c3ccc(C(O)C(F)(F)F)cc3)ccc2F)C(=O)c2sc3ccccc3c2Cl)CC1 (some centres unmarked) [Compound 433, 3-Chloro-benzo[b]thiophene-2-carboxylic acid [4-fluoro-4′-(2,2,2-trifluoro-1-hydroxy-ethyl)-biphenyl-3-ylmethyl]-(4-methylamino-cyclohexyl)-amide hydrochloride]
21 | 1000 to 2500 | – | CN[C@H]1CC[C@H](N(Cc2cc(-c3ccc(N(C)C(C)=O)cc3)ccc2F)C(=O)c2sc3ccccc3c2Cl)CC1 [Compound 430, 3-Chloro-benzo[b]thiophene-2-carboxylic acid [4′-(acetyl-methyl-amino)-4-fluoro-biphenyl-3-ylmethyl]-(4-methylamino-cyclohexyl)-amide trifluoroacetate]
22 | 250 to 1000 | – | CN[C@H]1CC[C@H](N(Cc2cc(-c3ccc(Cl)cc3)ccc2F)C(=O)c2sc3ccccc3c2Cl)CC1 [Compound 428, 3-Chloro-benzo[b]thiophene-2-carboxylic acid (4′-chloro-4-fluoro-biphenyl-3-ylmethyl)-(4-methylamino-cyclohexyl)-amide trifluoroacetate]
23 | 50 to 250 | – | CN[C@H]1CC[C@H](N(Cc2cc(-c3ccc(NC=O)cc3)ccc2F)C(=O)c2sc3ccccc3c2Cl)CC1 [Compound 431, 3-Chloro-benzo[b]thiophene-2-carboxylic acid (4-fluoro-4′-formylamino-biphenyl-3-ylmethyl)-(4-methylamino-cyclohexyl)-amide trifluoroacetate]
